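48-hour exposure; five concentrations; linearly interpolated endpoints. GI50 marks 50% less growth. TGI: concentration producing complete growth inhibition.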
Legend:
Experiment in all cases: NCI anticancer screen, dose series, 48 h
EKVX NSCLC = test system: EKVX NSCLC
HT29 colon = test system: HT29 colon
NCI-H23 lung = test system: NCI-H23 lung
MCF7 breast = test system: MCF7 breast
BT-549 breast = test system: BT-549 breast
MDA-MB-435 = test system: MDA-MB-435
TK-10 renal = test system: TK-10 renal
CCRF-CEM leukemia = test system: CCRF-CEM leukemia
U251 CNS = test system: U251 CNS
RPMI-8226 leukemia = test system: RPMI-8226 leukemia
SNB-75 CNS = test system: SNB-75 CNS
M14 melanoma = test system: M14 melanoma
MALME-3M melanoma = test system: MALME-3M melanoma
UACC-62 melanoma = test system: UACC-62 melanoma
HS 578T breast = test system: HS 578T breast
RXF 393 renal = test system: RXF 393 renal
ACHN renal = test system: ACHN renal
OVCAR-5 ovarian = test system: OVCAR-5 ovarian
HOP-62 NSCLC = test system: HOP-62 NSCLC
HCT-116 colon = test system: HCT-116 colon
SK-MEL-2 melanoma = test system: SK-MEL-2 melanoma
OVCAR-8 ovarian = test system: OVCAR-8 ovarian
NCI/ADR-RES ovarian = test system: NCI/ADR-RES ovarian
IGROV1 ovarian = test system: IGROV1 ovarian
K-562 leukemia = test system: K-562 leukemia
SF-539 CNS = test system: SF-539 CNS
SNB-19 CNS = test system: SNB-19 CNS
SF-268 CNS = test system: SF-268 CNS
LOX IMVI melanoma = test system: LOX IMVI melanoma
HCC-2998 colon = test system: HCC-2998 colon
OVCAR-3 ovarian = test system: OVCAR-3 ovarian
SF-295 CNS = test system: SF-295 CNS
SK-OV-3 ovarian = test system: SK-OV-3 ovarian
KM12 colon = test system: KM12 colon
SK-MEL-5 melanoma = test system: SK-MEL-5 melanoma
NCI-H460 lung = test system: NCI-H460 lung
T-47D breast = test system: T-47D breast
COLO 205 colon = test system: COLO 205 colon
SR leukemia = test system: SR leukemia
SW-620 colon = test system: SW-620 colon
PC-3 prostate = test system: PC-3 prostate
SN12C renal = test system: SN12C renal
NCI-H226 lung = test system: NCI-H226 lung
UACC-257 melanoma = test system: UACC-257 melanoma
DU-145 prostate = test system: DU-145 prostate
A549 NSCLC = test system: A549 NSCLC
SK-MEL-28 melanoma = test system: SK-MEL-28 melanoma
NCI-H522 lung = test system: NCI-H522 lung
MOLT-4 leukemia = test system: MOLT-4 leukemia
MDA-MB-231 breast = test system: MDA-MB-231 breast
HL-60(TB) leukemia = test system: HL-60(TB) leukemia
CAKI-1 renal = test system: CAKI-1 renal
786-0 renal = test system: 786-0 renal
HCT-15 colon = test system: HCT-15 colon
HOP-92 NSCLC = test system: HOP-92 NSCLC
A498 renal = test system: A498 renal
OVCAR-4 ovarian = test system: OVCAR-4 ovarian
UO-31 renal = test system: UO-31 renal

SMILES: Nc1nc(N)c2cc(S(=O)(=O)c3ccc4ccccc4c3)ccc2n1
- TGI (EKVX NSCLC): > 100 µM
- GI50 (HT29 colon): 2.34 µM
- TGI (HT29 colon): > 100 µM
- TGI (NCI-H23 lung): > 100 µM
- GI50 (MCF7 breast): 5.17 µM
- TGI (MCF7 breast): > 100 µM
- TGI (BT-549 breast): > 100 µM
- TGI (MDA-MB-435): > 100 µM
- TGI (TK-10 renal): > 81.2 µM
- GI50 (CCRF-CEM leukemia): > 100 µM
- TGI (CCRF-CEM leukemia): > 100 µM
- TGI (U251 CNS): 23.6 µM
- TGI (RPMI-8226 leukemia): > 100 µM
- TGI (SNB-75 CNS): 12.3 µM
- GI50 (M14 melanoma): 2.23 µM
- TGI (M14 melanoma): > 100 µM
- TGI (MALME-3M melanoma): > 100 µM
- TGI (UACC-62 melanoma): > 100 µM
- TGI (HS 578T breast): > 73.8 µM
- GI50 (RXF 393 renal): 3.81 µM
- TGI (RXF 393 renal): 48 µM
- TGI (ACHN renal): > 100 µM
- TGI (OVCAR-5 ovarian): > 100 µM
- TGI (HOP-62 NSCLC): 30.3 µM
- TGI (HCT-116 colon): > 100 µM
- TGI (SK-MEL-2 melanoma): > 77.8 µM
- TGI (OVCAR-8 ovarian): 49.6 µM
- TGI (NCI/ADR-RES ovarian): > 100 µM
- TGI (IGROV1 ovarian): > 100 µM
- TGI (K-562 leukemia): > 100 µM
- TGI (SF-539 CNS): > 74.7 µM
- TGI (SNB-19 CNS): 63.5 µM
- TGI (SF-268 CNS): > 58.9 µM
- TGI (LOX IMVI melanoma): > 100 µM
- TGI (HCC-2998 colon): > 100 µM
- TGI (OVCAR-3 ovarian): > 100 µM
- TGI (SF-295 CNS): > 56.3 µM
- TGI (SK-OV-3 ovarian): > 81.8 µM
- TGI (KM12 colon): > 100 µM
- TGI (SK-MEL-5 melanoma): > 65.7 µM
- TGI (NCI-H460 lung): > 100 µM
- TGI (T-47D breast): > 29.6 µM
- GI50 (COLO 205 colon): 6.37 µM
- TGI (COLO 205 colon): > 100 µM
- GI50 (SR leukemia): > 100 µM
- TGI (SR leukemia): > 100 µM
- GI50 (SW-620 colon): 0.611 µM
- TGI (SW-620 colon): > 100 µM
- TGI (PC-3 prostate): > 100 µM
- TGI (SN12C renal): > 100 µM
- GI50 (NCI-H226 lung): 10.8 µM
- TGI (NCI-H226 lung): > 100 µM
- TGI (UACC-257 melanoma): 2.67 µM
- GI50 (DU-145 prostate): 7.78 µM
- TGI (DU-145 prostate): > 100 µM
- TGI (A549 NSCLC): > 100 µM
- TGI (SK-MEL-28 melanoma): > 100 µM
- TGI (NCI-H522 lung): > 93 µM
- GI50 (MOLT-4 leukemia): > 100 µM
- TGI (MOLT-4 leukemia): > 100 µM
- TGI (MDA-MB-231 breast): > 31.6 µM
- TGI (HL-60(TB) leukemia): > 100 µM
- TGI (CAKI-1 renal): > 100 µM
- TGI (786-0 renal): > 100 µM
- TGI (HCT-15 colon): > 100 µM
- TGI (HOP-92 NSCLC): 34.8 µM

SMILES: C=C(C(=O)c1ccccc1)C(NC(C)(C)C)c1ccccc1 (configuration not stated)
- GI50 (EKVX NSCLC): 3.53 µM
- TGI (EKVX NSCLC): 13.7 µM
- GI50 (HT29 colon): 1 µM
- TGI (HT29 colon): 3.13 µM
- GI50 (NCI-H23 lung): 1.77 µM
- TGI (NCI-H23 lung): 4.93 µM
- GI50 (MCF7 breast): 1.06 µM
- TGI (MCF7 breast): 8.21 µM
- GI50 (BT-549 breast): 2.13 µM
- TGI (BT-549 breast): 4.6 µM
- GI50 (MDA-MB-435): 2.11 µM
- TGI (MDA-MB-435): 11 µM
- GI50 (TK-10 renal): 1.02 µM
- TGI (TK-10 renal): 2.25 µM
- GI50 (CCRF-CEM leukemia): 0.629 µM
- TGI (CCRF-CEM leukemia): 43.7 µM
- GI50 (U251 CNS): 2.2 µM
- TGI (U251 CNS): 6.21 µM
- GI50 (RPMI-8226 leukemia): 1.84 µM
- TGI (RPMI-8226 leukemia): 6.44 µM
- GI50 (A498 renal): 1.7 µM
- TGI (A498 renal): 3.25 µM
- GI50 (SNB-75 CNS): 4 µM
- TGI (SNB-75 CNS): 16.6 µM
- GI50 (M14 melanoma): 1.87 µM
- TGI (M14 melanoma): 4.65 µM
- GI50 (MALME-3M melanoma): 1.91 µM
- TGI (MALME-3M melanoma): 4.33 µM
- GI50 (UACC-62 melanoma): 1.54 µM
- TGI (UACC-62 melanoma): 4.02 µM
- GI50 (HS 578T breast): 5.56 µM
- TGI (HS 578T breast): 75.9 µM
- GI50 (RXF 393 renal): 1.21 µM
- TGI (RXF 393 renal): 2.69 µM
- GI50 (ACHN renal): 1.59 µM
- TGI (ACHN renal): 4.51 µM
- GI50 (OVCAR-5 ovarian): 2.37 µM
- TGI (OVCAR-5 ovarian): 4.65 µM
- GI50 (HOP-62 NSCLC): 3.38 µM
- TGI (HOP-62 NSCLC): 10.4 µM
- GI50 (HCT-116 colon): 1.33 µM
- TGI (HCT-116 colon): 2.92 µM
- GI50 (SK-MEL-2 melanoma): 1.88 µM
- TGI (SK-MEL-2 melanoma): 4.78 µM
- GI50 (OVCAR-8 ovarian): 3.02 µM
- TGI (OVCAR-8 ovarian): 10.8 µM
- GI50 (NCI/ADR-RES ovarian): 2.63 µM
- TGI (NCI/ADR-RES ovarian): 12.4 µM
- GI50 (IGROV1 ovarian): 2.3 µM
- TGI (IGROV1 ovarian): 6.9 µM
- GI50 (K-562 leukemia): 1.91 µM
- TGI (K-562 leukemia): 11.5 µM
- GI50 (SF-539 CNS): 3.21 µM
- TGI (SF-539 CNS): 8.36 µM
- GI50 (SNB-19 CNS): 4.2 µM
- TGI (SNB-19 CNS): 16 µM
- GI50 (SF-268 CNS): 3.61 µM
- TGI (SF-268 CNS): 18.6 µM
- GI50 (LOX IMVI melanoma): 1.46 µM
- TGI (LOX IMVI melanoma): 2.97 µM
- GI50 (OVCAR-4 ovarian): 4.72 µM
- TGI (OVCAR-4 ovarian): 17.1 µM
- GI50 (HCC-2998 colon): 1.81 µM
- TGI (HCC-2998 colon): 3.38 µM
- GI50 (OVCAR-3 ovarian): 1.3 µM
- TGI (OVCAR-3 ovarian): 3.24 µM
- GI50 (SF-295 CNS): 2.9 µM
- TGI (SF-295 CNS): 10.8 µM
- GI50 (SK-OV-3 ovarian): 3.76 µM
- TGI (SK-OV-3 ovarian): 20.1 µM
- GI50 (KM12 colon): 2.22 µM
- TGI (KM12 colon): 6.36 µM
- GI50 (SK-MEL-5 melanoma): 1.45 µM
- TGI (SK-MEL-5 melanoma): 2.82 µM
- GI50 (NCI-H460 lung): 2.15 µM
- TGI (NCI-H460 lung): 5.23 µM
- GI50 (T-47D breast): 2.44 µM
- TGI (T-47D breast): 6.78 µM
- GI50 (COLO 205 colon): 1.29 µM
- TGI (COLO 205 colon): 2.81 µM
- GI50 (SR leukemia): 1.56 µM
- TGI (SR leukemia): 8.41 µM
- GI50 (SW-620 colon): 1.14 µM
- TGI (SW-620 colon): 3.44 µM
- GI50 (PC-3 prostate): 3.26 µM
- TGI (PC-3 prostate): 13 µM
- GI50 (SN12C renal): 2.12 µM
- TGI (SN12C renal): 5.38 µM
- GI50 (NCI-H226 lung): 1.63 µM
- TGI (NCI-H226 lung): 4.56 µM
- GI50 (UACC-257 melanoma): 1.69 µM
- TGI (UACC-257 melanoma): 4.81 µM
- GI50 (DU-145 prostate): 3.11 µM
- TGI (DU-145 prostate): 13.2 µM
- GI50 (A549 NSCLC): 2.74 µM
- TGI (A549 NSCLC): 7.79 µM
- GI50 (SK-MEL-28 melanoma): 1.84 µM
- TGI (SK-MEL-28 melanoma): 3.72 µM
- GI50 (NCI-H522 lung): 0.308 µM
- TGI (NCI-H522 lung): 1.53 µM
- GI50 (MOLT-4 leukemia): 1.76 µM
- TGI (MOLT-4 leukemia): 21.9 µM
- GI50 (MDA-MB-231 breast): 2.06 µM
- TGI (MDA-MB-231 breast): 4.84 µM
- GI50 (UO-31 renal): 1.38 µM
- TGI (UO-31 renal): 2.85 µM
- GI50 (HL-60(TB) leukemia): 2.03 µM
- TGI (HL-60(TB) leukemia): 7.82 µM
- GI50 (CAKI-1 renal): 1.91 µM
- TGI (CAKI-1 renal): 7.42 µM
- GI50 (786-0 renal): 2.06 µM
- TGI (786-0 renal): 4.08 µM
- GI50 (HCT-15 colon): 1.88 µM
- TGI (HCT-15 colon): 10 µM
- GI50 (HOP-92 NSCLC): 2.38 µM
- TGI (HOP-92 NSCLC): 6.83 µM

Reference: PubChem BioAssay (NCI)
